In PMC12526156, “Optimization of the Macrocyclic Tetrapeptide [D-Trp]CJ-15,208 to Prevent Stress-Induced Relapse of Cocaine-Seeking Behavior” (Molecules, 2025):
Converted amounts (≈) assume the structure as drawn. Where a SMILES comes first, the peptide text is derived from it. [ ]: non-standard residue; d: D form. dPhe(3,5-F2) = N[C@H](Cc1cc(F)cc(F)c1)C(=O)O; dPhe(3-F) = N[C@H](Cc1cccc(F)c1)C(=O)O

Legend:
[1] = biological target: T1, human MOR (Homo sapiens, UniProt P35372); assay: biochemical; assay type: binding; details: [3H]DAMGO, human MOR; ± S.E.M., three independent experiments; read-out: MOR Ki
T1 construct: expressed in transfected cells

[2] = biological target: CNS KORs (Mus musculus, UniProt P33534); assay: 55 °C WWTW assay, antagonism of centrally administered U50,488 (30 nmol, i.c.v.); details: 2.5 h pretreatment; for antagonism of CNS KORs: 30 mg/kg, p.o. (9: 10 mg/kg, p.o.)
[3] = system: C57BL/6J mice; assay: 55 °C warm-water tail-withdrawal assay, antinociception; assay type: in vivo, mouse; details: p.o. dose response; significant only first 10 min at high doses
Method: For intracerebroventricular administration, peptides were dissolved in DMSO at a concentration of 20 mM (100 nmol/5 µL), then diluted to test doses in a final vehicle solution of 50%DMSO/50% saline (0.9%). For all other testing (for oral administration), peptides were made fresh each day for testing in a final vehicle solution of 10% DMSO/10% Solutol/80% saline (0.9%).
Intracerebroventricular injections were made directly into the lateral ventricle according to the modified steps detailed previously. The volume of all i.c.v. injections was 5 μL, using a 10 μL Hamilton microliter syringe. The mouse was lightly anesthetized with isoflurane, an incision was made in the scalp, and the injection was made 2 mm lateral and 2 mm caudal to bregma at a depth of 3 mm.
The dose response of analogs 3, 6, 9 and 14 were also assessed following administration of one of up to four additional oral (p.o.) doses (1–30 mg/kg).

[4] = biological target: DOR (Mus musculus, UniProt P32300); assay: 55 °C WWTW assay, antagonism of the DOR-selective agonist SNC80; details: 3 or 4 30 mg/kg, p.o., 9 10 mg/kg, 2.5 h before SNC-80 100 nmol, i.c.v.
[5] = biological target: T2, hKOR (Homo sapiens, UniProt P41145); assay: KOR cAMP assay using GloSensor-22F, antagonist mode (vs 10 nM U50,488); assay type: cell-based
From the text: A piggy-Bac (PB) transposon/transposase system was utilized to allow for the stable integration of the GloSensor-22F cAMP sensor (Promega, Madison, WI, USA) gene into genomic TTAA sites in Chinese hamster ovary cells already stably expressing the hKOR. The pFastBac hyperPB plasmid vector, which codes for the piggy-Bac transposon/transposase system, was utilized and was a kind gift from Dr. John Lueck. The multicistronic expression cassette developed for our experiments consisted of a CMV promoter driving constitutive expression of GloSensor-22F cAMP sensor, followed by an internal ribosome entry site (IRES) to drive the expression of codon-optimized HygR-P2A-mScarlet (hygromycin resistance gene and mScarlet separated by a 2A self-cleaving peptide element). To clone the expression cassette onto the pFastBac vector, the CMV promoter and GloSensor-22F were PCR amplified from pGloSensor-22F cAMP Plasmid (Promega), the IRES sequence was PCR amplified from pLVX-CMV-Galpha-oA ONE-GO (a gift from Dr. Mikel Garcia-Marcos, Addgene plasmid #189732), the HygR-P2A-mScarlet sequence was a kind gift from Dr. Lueck, and a bGH-poly(A) termination sequence was PCR amplified from pcDNA3.1(+). The pFastBac vector was linearized via overnight digestion with CspCI at 37 °C, which cuts between two inverted terminal repeat (ITR) sequences, and the corresponding backbone and all PCR fragments were gel purified and assembled via Gibson assembly using the Gibson Assembly MasterMix (New England Biolabs, Ipswich, MA, USA). The resulting pFastBac CMV GloSensor-22F IRES HygR-P2A-mScarlet bGH plasmid was transformed into NEB Stable Competent E. coli (New England Biolabs), miniprepped using the E.Z.N.A. Plasmid DNA Mini Kit (Omega Bio-Tek, Norcross, GA, USA), and sequence verified by nanopore whole-plasmid sequencing (Eurofins Genomics, Louisville, KY, USA).
3.0 × 10^6 hKOR-CHO cells were plated on a 6 cm dish and incubated for four h at 37 °C and 5% CO2 in DMEM (Corning Mediatech, Manassas, VA, USA) supplemented with 5% FBS (Corning Mediatech), 1% Penicillin/Streptomycin (Gibco, Waltham, MA, USA). The cells were then transfected with 2.0 μg pFastBac CMV GloSensor-22F IRES HygR-P2A-mScarlet bGH using PEI as a transfection reagent. The following day, transfected cells were reseeded onto a 10 cm dish at a density of 5.0 × 10^5 cells and 600 μg/mL hygromycin B (Gold Bio, St. Louis, MO, USA) was added to the culture media. Cells were cultured under selection antibiotics for seven days, and the selection process was monitored by the increase in abundance of mScarlet positive cells via epifluorescence microscopy.
Following the selection period, KOR-CHO-GLO cells were maintained at 37 °C and 5% CO2 in DMEM supplemented with 5% FBS, 1% Penicillin/Streptomycin and 300 μg/mL hygromycin B to reduce the likelihood of CMV promoter silencing. On the day of the assay, cells were detached with 0.05% trypsin (Gibco) and counted, then centrifuged (1000× g, 5 min) and resuspended in assay buffer (1xPBS, 0.1% glucose, 0.5 mM MgCl2) containing 4 mM D-luciferin substrate (Gold Bio) at approximately 2 million cells/mL. 25 μL of cells (~50,000/well) were seeded onto poly L-lysine-coated white 96-well flat bottom plates (Greiner Bio-One, Kremsmünster, Austria)) and returned to the incubator for 60 min. Following incubation, cells were allowed to equilibrate to room temperature protected from light (10–15 min). Initial luminescence readings (at least 10 cycles) were collected for each well using a FLUOstar Omega v.6.2 plate reader (BMG Labtech, Ortenberg, Germany), after which the plate was removed. Prepared 4x treatments of drug (25 μL) were added to appropriate wells followed by 50 μL of 20 μM forskolin (AmBeed, Buffalo Grove, IL, USA) before the plate was returned to the reader and luminescence measured until final plateau levels were achieved (20–30 min). Assays were performed in duplicate and repeated at least three times.

[6] = Kinetic aqueous solubility; assay type: physicochemical; details: 1% DMSO, pH 7.4
From the text: Table A1 Stability of [D-Trp]- and [D-Phe^4]CJ-15,208 and selected analogs in human (HLMs) and mouse liver microsomes (MLMs)^1. and kinetic aqueous solubility. | column: Solubility ^2 / (µM)

[7] = Metabolic stability in mouse liver microsomes; assay type: in vitro ADME; details: mouse liver microsomes, 1 mg protein/mL; for half-life at 1 µM: 1 µM compound, 37 °C, read-out: MLM t1/2; for microsomal CLint at 1 µM: read-out: MLM CLint
Method: (§1) Evaluation of the metabolic stability of the macrocyclic tetrapeptides by human and mouse liver microsomes was performed by Curia Global (Buffalo, NY, USA). […]

[8] = Metabolic stability in human liver microsomes; assay type: in vitro ADME; details: human liver microsomes, 1 mg protein/mL; for half-life at 1 µM: 1 µM compound, 37 °C, read-out: HLM t1/2; for microsomal CLint at 1 µM: read-out: HLM CLint
Method: as §1

[9] = biological target: T2, hKOR; assay: Competition binding, [3H]U69,593, hKOR-CHO membranes; details: for Ki: [3H]U69,593, human KOR, ± S.E.M., three independent experiments, read-out: KOR Ki
[10] = system: C57BL/6J mice; assay: Stress-induced reinstatement of extinguished cocaine conditioned place preference
[11] = biological target: T2, hKOR; assay: KOR cAMP assay using GloSensor-22F, agonist mode (KOR-CHO-GLO cells); assay type: cell-based; details: read-out: KOR Efficacy (%)
[12] = biological target: MOR (Mus musculus, UniProt P42866); assay: 55 °C WWTW assay, antagonism of the MOR-preferring agonist morphine; details: 3 or 4 30 mg/kg, p.o., 9 10 mg/kg, 2.5 h before morphine 10 mg/kg, i.p.

| Compound | Ki [1] [nM] | antagonism of CNS KORs [2] | antinociception [3] [%] | effect on antinociceptive effects of SNC80 [4] | IC50 [5] [nM] | solubility kinetic [6] [µM] | half-life at 1 µM [7] [min] | microsomal CLint at 1 µM [7] [µL/min/mg] | half-life at 1 µM [8] [min] | microsomal CLint at 1 µM [8] [µL/min/mg] | Selectivity (MOR Ki/KOR Ki) [9] | Ki [9] [nM] | reduction of stress-induced reinstatement of cocaine CPP ([10]; 10 mg/kg, p.o.) | Emax at 10 µM [11] [%] | effect on antinociceptive effects of morphine [12] | doses not producing significant antagonism of CNS KORs [2] | fold lower KOR affinity than [D-Trp]CJ-15,208 (1) [9] [fold] | doses not preventing stress-induced reinstatement of cocaine CPP ([10]; p.o. once daily for two days, 1.5 h prior to FSS) [mg/kg] | fold lower dose for significant reduction of stress-induced reinstatement than [D-Trp]CJ-15,208 ([10]; vs 60 mg/kg, p.o.) [fold] |
| --- | --- | --- | --- | --- | --- | --- | --- | --- | --- | --- | --- | --- | --- | --- | --- | --- | --- | --- | --- |
| O=C1N[C@H](Cc2cc(F)cc(F)c2)C(=O)N[C@@H](Cc2ccccc2)C(=O)N2CCC[C@@H]2C(=O)N[C@H]1Cc1ccccc1 [Analog 9, [D-Phe(3,5-F2)^4]CJ-15,208] (cyclo(F[dP]F[dPhe(3,5-F2)])) | 290 ± 27 | significant antagonism | < 20 | no significant effect | 320 ± 49 | 8.6 (≈ 4.94 µg/mL) | 1.2 | 600 | 2.9 | 237 | 12 | 25 ± 4.3 | not significant | 14 ± 2.4 | no significant effect | – | – | – | – |
| O=C1N[C@H](Cc2ccccc2)C(=O)N[C@@H](Cc2ccccc2)C(=O)N2CCC[C@@H]2C(=O)N[C@H]1Cc1ccccc1 [Analog 4, cyclo[Phe-D-Pro-Phe-D-Phe]] (cyclo(F[dP]F[dF])) | 270 ± 23 | significant antagonism | < 20 | no significant effect | 460 ± 100 | 24 (≈ 12.9 µg/mL) | 1.6 | 447 | 4.2 | 165 | 11 | 24 ± 0.97 | – | 19 ± 8.1 | no significant effect | 3 mg/kg, p.o. | 3.5 | 3 | 6 |
| O=C1N[C@H](Cc2cccc(F)c2)C(=O)N[C@@H](Cc2ccccc2)C(=O)N2CCC[C@@H]2C(=O)N[C@H]1Cc1ccccc1 [Analog 6, [D-Phe(m-F)^4]CJ-15,208] (cyclo(F[dP]F[dPhe(3-F)])) | 160 ± 15 | ineffective | < 20 | – | 340 ± 58 | 26 (≈ 14.5 µg/mL) | 2.1 | 331 | 1.8 | 376 | 5 | 32 ± 5.8 | – | 11 ± 5.6 | – | – | – | – | – |
